From US11142515B2, “Pyrazolyl-ureas as kinase inhibitors” (RESPIVERT LIMITED, priority 2014, dated 2021)

Key:
p38MAPKγ (MAPK12) = target: T1, p38MAPKγ (MAPK12) (Homo sapiens, UniProt P53778); assay: p38 MAPKγ enzyme inhibition (Z-LYTE FRET); type: biochemical; conditions: Table 2B, unit inferred; read-out: p38 MAPKγ (Enzyme Profile)
T1 construct: purchased Life Technologies
T1 sequence (P53778 1-367): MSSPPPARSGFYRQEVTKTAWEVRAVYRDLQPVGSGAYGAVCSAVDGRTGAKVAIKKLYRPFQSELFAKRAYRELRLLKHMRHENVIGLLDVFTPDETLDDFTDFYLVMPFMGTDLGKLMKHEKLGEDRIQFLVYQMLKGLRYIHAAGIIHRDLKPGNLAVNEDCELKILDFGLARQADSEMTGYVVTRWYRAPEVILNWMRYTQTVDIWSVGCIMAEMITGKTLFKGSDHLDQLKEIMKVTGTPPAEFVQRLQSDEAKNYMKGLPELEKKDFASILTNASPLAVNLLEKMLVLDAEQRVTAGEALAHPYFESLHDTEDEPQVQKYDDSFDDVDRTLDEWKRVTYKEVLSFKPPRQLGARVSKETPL
Summary of the method: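 Enzyme (added at 800 ng/mL) was preincubated 2 h at RT with compound (solutions of 40 to 0.0012 μg/mL), then FRET peptide (8 μM) and ATP (400 μM), both as added, were reacted 1 h at RT. Protease development followed for 1 h; phosphorylation was read as the coumarin/fluorescein emission ratio.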

[1] = target: T2, p38 MAPKα isoform (MAPK14) (Homo sapiens, UniProt Q16539); assay: p38 MAPKα enzyme inhibition (Z-LYTE FRET); type: biochemical; conditions: Table 2B, unit inferred; read-out: p38 MAPKα (Enzyme Profile)
T2 construct: purchased Life Technologies
T2 sequence (Q16539 whole entry, canonical isoform): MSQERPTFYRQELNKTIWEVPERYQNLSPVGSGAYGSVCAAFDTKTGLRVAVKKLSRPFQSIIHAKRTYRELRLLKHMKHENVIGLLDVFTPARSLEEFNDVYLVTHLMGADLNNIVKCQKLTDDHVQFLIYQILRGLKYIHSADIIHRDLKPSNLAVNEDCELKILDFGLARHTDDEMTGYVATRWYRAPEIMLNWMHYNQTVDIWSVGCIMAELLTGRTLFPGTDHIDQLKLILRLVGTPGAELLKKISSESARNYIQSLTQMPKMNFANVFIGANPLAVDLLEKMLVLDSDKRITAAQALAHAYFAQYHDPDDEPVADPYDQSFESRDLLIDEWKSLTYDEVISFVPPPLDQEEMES
Protocol: The enzyme inhibitory activities of compounds disclosed herein were determined by FRET using synthetic peptides labelled with both donor and acceptor fluorophores (Z-LYTE, Life Technologies, Paisley, UK).
The inhibitory activities of compounds of the invention against the p38 MAPKα isoform (MAPK14: Life Technologies), were evaluated indirectly by determining the level of activation/phosphorylation of the target peptide of the p38 MAPKα down-stream molecule, MAPKAP-K2. The enzyme (40 ng/mL, 2.5 μL) was incubated with the test compound (2.5 μL of either 40 μg/mL, 12 μg/mL, 4 μg/mL, 1.2 μg/mL, 0.4 μg/mL, 0.12 μg/mL, 0.04 μg/mL, 0.012 μg/mL, 0.004 μg/mL or 0.0012 μg/mL) for 2 h at RT. […] Development reagent (protease, 5 μL) was added for 1 h prior to detection in a fluorescence microplate reader (EnVision, Perkin Elmer, Waltham, Mass., USA).
In all cases, the site-specific protease cleaves non-phosphorylated peptide only and eliminates the FRET signal. Phosphorylation levels of each reaction were calculated using the ratio of coumarin emission (donor) over fluorescein emission (acceptor), for which low ratios indicate high phosphorylation and high ratios indicate low phosphorylation levels.

IC50 (p38MAPKγ (MAPK12))	IC50 [1]	SMILES
150 nM	16 nM	Cc1ccc(-n2nc(C(C)(C)C)cc2NC(=O)Nc2ccc(OCc3ccnc(Nc4cncc(NC(C)C)n4)c3)c3ccccc23)cc1 [Example 117, 1-(3-(tert-butyl)-1-(p-tolyl)-1H-pyrazol-5-yl)-3-(4-((2-((6-(isopropylamino)pyrazin-2-yl)amino)pyridin-4-yl)methoxy)naphthalen-1-yl) urea]
259 nM	19 nM	COCCN(CCOC)C(=O)c1cnc(Nc2cc(COc3ccc(NC(=O)Nc4cc(C(C)(C)C)nn4-c4ccc(C)cc4)c4ccccc34)ccn2)cn1 [Example 73]
46 nM	3.6 nM	Cc1ccc(-n2nc(C(C)(C)C)cc2NC(=O)Nc2ccc(OCc3ccnc(Nc4cnc(C(=O)N5CCNC(=O)C5)cn4)c3)c3ccccc23)cc1 [Example 249, 1-(3-(tert-butyl)-1-(p-tolyl)-1H-pyrazol-5-yl)-3-(4-((2-((5-(3-oxopiperazine-1-carbonyl)pyrazin-2-yl)amino)pyridin-4-yl)methoxy)naphthalen-1-yl)urea]
169 nM	31 nM	CCCc1cncc(Nc2cc(COc3ccc(NC(=O)Nc4cc(C(C)(C)C)nn4-c4ccc(C)cc4)c4ccccc34)ccn2)n1 [Example 172, 1-(3-(tert-butyl)-1-(p-tolyl)-1H-pyrazol-5-yl)-3-(4-((2-((6-propylpyrazin-2-yl)amino)pyridin-4-yl)methoxy)naphthalen-1-yl) urea]
79 nM	38 nM	Cc1ccc(-n2nc(C(C)(C)C)cc2NC(=O)Nc2ccc(OCc3ccnc(Nc4cncc(OCCO)n4)c3)c3ccccc23)cc1 [Example 121, 1-(3-(tert-butyl)-1-(p-tolyl)-1H-pyrazol-5-yl)-3-(4-((2-((6-(2-hydroxyethoxy)pyrazin-2-yl)amino)pyridin-4-yl)methoxy)naphthalen-1-yl)urea]
171 nM	60 nM	Cc1ccc(-n2nc(C(C)(C)C)cc2NC(=O)Nc2ccc(OCc3ccnc(Nc4cncc(N5CC(O)C5)n4)c3)c3ccccc23)cc1 [Example 123, 1-(3-(tert-butyl)-1-(p-tolyl)-1H-pyrazol-5-yl)-3-(4-((2-((6-(3-hydroxyazetidin-1-yl)pyrazin-2-yl)amino)pyridin-4-yl)methoxy)naphthalen-1-yl)urea]
460 nM	47 nM	CCNC(=O)c1cnc(Nc2cc(COc3ccc(NC(=O)Nc4cc(C(C)(C)C)nn4-c4ccc(C)cc4)c4ccccc34)ccn2)cn1 [Example 191, 5-((4-(((4-(3-(3-(tert-butyl)-1-(p-tolyl)-1H-pyrazol-5-yl)ureido)naphthalen-1-yl)oxy)methyl)pyridin-2-yl)amino)-N-ethylpyrazine-2-carboxamide]
> 13700 nM	11 nM	COc1cc(F)cc(-n2nc(C(C)(C)C)cc2NC(=O)Nc2ccc(OCc3ccnc(Nc4cnc(C(=O)N5CCCC5)cn4)c3)c3ccccc23)c1 [Example 250, 1-(3-(tert-butyl)-1-(3-fluoro-5-methoxyphenyl)-1H-pyrazol-5-yl)-3-(4-((2-((5-(pyrrolidine-1-carbonyl)pyrazin-2-yl)amino)pyridin-4-yl)methoxy)naphthalen-1-yl)urea]
117 nM	18 nM	Cc1ccc(-n2nc(C(C)(C)C)cc2NC(=O)Nc2ccc(OCc3ccnc(Nc4cnc(C(=O)N5CCC[C@H](O)C5)cn4)c3)c3ccccc23)cc1 [Example 232, (S)-1-(3-(tert-butyl)-1-(p-tolyl)-1H-pyrazol-5-yl)-3-(4-((2-((5-(3-hydroxypiperidine-1-carbonyl)pyrazin-2-yl)amino)pyridin-4-yl)methoxy)naphthalen-1-yl)urea]
146 nM	1.2 nM	Cc1ccc(-n2nc(C(C)(C)C)cc2NC(=O)Nc2ccc(OCc3ccnc(Nc4cnc(C(=O)N5CC[C@@H](N(C)C)C5)cn4)c3)c3ccccc23)cc1 [Example 259, (R)-1-(3-(tert-butyl)-1-(p-tolyl)-1H-pyrazol-5-yl)-3-(4-((2-((5-(3-(dimethylamino)pyrrolidine-1-carbonyl)pyrazin-2-yl)amino)pyridin-4-yl)methoxy)naphthalen-1-yl)urea]

Further lines, the molecule ahead of its results:

SMILES	IC50 (p38MAPKγ (MAPK12))	IC50 [1]
Cc1ccc(-n2nc(C(C)(C)C)cc2NC(=O)Nc2ccc(OCc3ccnc(Nc4cncc(CCCO)n4)c3)c3ccccc23)cc1 [Example 155, 1-(3-(tert-butyl)-1-(p-tolyl)-1H-pyrazol-5-yl)-3-(4-((2-((6-(3-hydroxypropyl)pyrazin-2-yl)amino)pyridin-4-yl)methoxy)naphthalen-1-yl)urea]	31 nM	8.9 nM
CN(C)c1cncc(Nc2cc(COc3ccc(NC(=O)Nc4cc(C(C)(C)C)nn4-c4ccc(CO)cc4)c4ccccc34)ccn2)n1 [Example 114, 1-(3-(tert-butyl)-1-(4-(hydroxymethyl)phenyl)-1H-pyrazol-5-yl)-3-(4-((2-((6-(dimethylamino)pyrazin-2-yl)amino)pyridin-4-yl)methoxy)naphthaien-1-yl)urea]	26 nM	2 nM
Cc1cccc(-n2nc(C(C)(C)C)cc2NC(=O)Nc2ccc(OCc3ccnc(Nc4cncc(C5CC5)n4)c3)c3ccccc23)c1 [Example 160, 1-(3-(tert-butyl)-1-(m-tolyl)-1H-pyrazol-5-yl)-3-(4-((2-((6-cyclopropylpyrazin-2-yl)amino)pyridin-4-yl)methoxy)naphthalen-1-yl) urea]	510 nM	34 nM
CCc1cnc(Nc2cc(COc3ccc(NC(=O)Nc4cc(C(C)(C)C)nn4-c4ccc(C)c(C)c4)c4ccccc34)ccn2)cn1 [Example 151, 1-(3-(tert-butyl)-1-(3,4-dimethylphenyl)-1H-pyrazol-5-yl)-3-(4-((2-((5-ethylpyrazin-2-yl)amino)pyridin-4-yl)methoxy)naphthalen-1-yl)urea]	439 nM	35 nM
COCC(=O)Nc1cncc(Nc2cc(COc3ccc(NC(=O)Nc4cc(C(C)(C)C)nn4-c4ccc(C)cc4)c4ccccc34)ccn2)n1 [Example 107, N-(6-((4-(((4-(3-(3-(tert-butyl)-1-(p-tolyl)-1H-pyrazol-5-yl)ureido)naphthalen-1-yl)oxy)methyl)pyridin-2-yl)amino)pyrazin-2-yl)-2-methoxyacetamide]	5730 nM	27 nM
CC(C)(C)c1cc(NC(=O)Nc2ccc(OCc3ccnc(Nc4cnccn4)c3)c3ccccc23)n(-c2cccc(CO)c2)n1 [Example 174, 1-(3-(tert-butyl)-1-(3-(hydroxymethyl)phenyl)-1H-pyrazol-5-yl)-3-(4-((2-(pyrazin-2-ylamino)pyridin-4-yl)methoxy)naphthalen-1-yl)urea]	56 nM	7.7 nM
Cc1ccc(-n2nc(C(C)(C)C)cc2NC(=O)Nc2ccc(OCc3ccnc(Nc4cnc(C(=O)NCCOC(C)(C)C)cn4)c3)c3ccccc23)cc1 [Example 125, N-(2-(tert-butoxy)ethyl)-5-((4-(((4-(3-(3-(tert-butyl)-1-(p-tolyl)-1H-pyrazol-5-yl)ureido)naphthalen-1-yl)oxy)methyl)pyridin-2-yl)amino)pyrazine-2-carboxamide]	> 13500 nM	302 nM
COCCOc1ccc(-n2nc(C(C)(C)C)cc2NC(=O)Nc2ccc(OCc3ccnc(Nc4cnccn4)c3)c3ccccc23)cc1C [Example 157, 1-(3-(tert-butyl)-1-(4-(2-methoxyethoxy)-3-methyl-phenyl)-1H-pyrazol-5-yl)-3-(4-((2-(pyrazin-2-ylamino)pyridin-4-yl)methoxy)naphthalen-1-yl) urea]	> 14900 nM	23 nM
Cc1ccc(-n2nc(C(C)(C)C)cc2NC(=O)Nc2ccc(OCc3ccnc(Nc4cnc(CO)cn4)c3)c3ccccc23)cc1C [Example 147, 1-(3-(tert-butyl)-1-(3,4-dimethylphenyl)-1H-pyrazol-5-yl)-3-(4-((2-((5-(hydroxymethyl)pyrazin-2-yl)amino)pyridin-4-yl)methoxy)naphthalen-1-yl) urea]	119 nM	4.1 nM
CCc1cncc(Nc2cc(COc3ccc(NC(=O)Nc4cc(C(C)(C)C)nn4-c4ccc(F)cc4)c4ccccc34)ccn2)n1 [Example 213, 1-(3-(tert-butyl)-1-(4-fluoro-phenyl)-1H-pyrazol-5-yl)-3-(4-((2-((6-ethylpyrazin-2-yl)amino)pyridin-4-yl)methoxy)naphthalen-1-yl)urea]	735 nM	36 nM
